Results from publication PMC11597774, “Investigation of Antimicrobial and Anti-Inflammatory Efficacy of Newly Synthesized Pyrogallol-Coumarin Hybrids: In Vitro and In Silico Studies” (Pharmaceutics, 2024).
pIC50: −log10 of the molar value. Converted amounts (≈) assume the structure as drawn. Where two headings read alike, the source gives them in different places.

Key:
P. mirabilis ATCC 12453 [1] = assay: Inhibition of biofilm formation (crystal violet); format: cell-based, Proteus mirabilis; conditions: for BIC90: P. mirabilis ATCC 12453, 48 h; for pIC50: Proteus mirabilis, ATCC12453, P. mirabilis ATCC 12453, 48 h, read-out: BIC50
Experimental: (§1) The ability of S. aureus ATCC 6538, P. mirabilis ATCC 12453, and P. aeruginosa ATCC 27853 to form biofilms was assayed as described by O’Toole et al. (2000), with some modifications. Briefly, tissue culture 96-well microtiter plates (Sarstedt, Germany) were prepared by dispensing 100 µL of nutrient broth (i.e., Mueller Hinton broth) into each well. Then, 10 µL of spore suspension (1.0 McFarland for Gram-positive bacteria and 0.5 McFarland for Gram-negative bacteria) was added to each row. To encourage biofilm formation, all plates were incubated at 37 °C for 48 h, after which the content of each well was emptied and washed twice with 200 µL of sterile 0.85% saline to remove non-adherent cells. The biofilms formed were fixed by adding 100 µL of methanol until it evaporated completely, then stained with 0.1% (w/v) crystal violet (Fluka AG, Buchs, Switzerland) and left at room temperature for 20 min. The excess stain was washed away with deionized water, followed by […] of 96% ethanol. The optical densities (ODs) of the stained biofilms were measured with an ELISA plate reader (RT-2100C, Rayto, Shenzhen, China) at 630 nm. Control wells containing only broth were included to verify sterility and prevent nonspecific media binding. To account for background absorbance, OD readings from sterile medium, fixative, and dye were averaged and subtracted from all test measurements. All tests were conducted in duplicate. The tissue culture 96-well microtiter plates (Sarstedt, Germany) were prepared by dispensing 100 µL of nutrient broth (i.e., Mueller Hinton broth) into each well. From the stock solutions of tested PCH-1 and PCH-2 (at a concentration of 5.4 µmol/L), 100 µL was added to the first row of the microtiter plate. Twofold serial dilutions were then performed, followed by the addition of 10 µL of bacterial suspension to each well. The turbidity of the bacterial suspension was 0.5 McFarland for Gram-negative bacteria and 1.0 McFarland for Gram-positive bacteria. The microtiter plates prepared in this way were incubated at 37 °C for 48 h. The remaining steps of the experiment were carried out as outlined below. […] Only broth or broth with tested PCH-1 and PCH-2 served as controls to check sterility and nonspecific binding of media. To compensate for background absorbance, OD readings from sterile medium, extracts, fixative, and dye were averaged and subtracted from all test values. All tests were performed in duplicate.

P. aeruginosa ATCC 27853 [2] = assay: Inhibition of biofilm formation (crystal violet); format: cell-based, Pseudomonas aeruginosa; conditions: for BIC90: P. aeruginosa ATCC 27853, 48 h; for pIC50: Pseudomonas aeruginosa, ATCC27853, P. aeruginosa ATCC 27853, 48 h, read-out: BIC50
Experimental: as §1

S. aureus ATCC 25923 [3] = assay: Microdilution MIC/MMC with resazurin; format: cell-based, Staphylococcus aureus; conditions: for MIC: Staphylococcus aureus, ATCC25923
S. aureus ATCC 25923 [4] = assay: Inhibition of biofilm formation (crystal violet); format: cell-based, Staphylococcus aureus; conditions: for BIC90: S. aureus ATCC 25923, 48 h; for pIC50: Staphylococcus aureus, ATCC25923, S. aureus ATCC 25923, 48 h, read-out: BIC50
S. boulardii = assay: Microdilution MIC/MMC with resazurin; format: cell-based, Saccharomyces boulardii; conditions: for MIC: Saccharomyces cerevisiae
Experimental: (§2) The antimicrobial activity of PCH-1 and PCH-2 was tested against 13 microorganisms. The experiment included four standard strains, Staphylococcus aureus ATCC 6538, Bacillus subtilis ATCC 6633, Proteus mirabilis ATCC 12453, and Pseudomonas aeruginosa ATCC 27853; five isolates, Staphylococcus aureus, Escherichia coli, Salmonella enterica, Klebsiella pneumoniae, and Bacillus subtilis; and one probiotic strain Lactobacillus plantarum 299V. Additionally, three fungal strains were tested, including one standard strain, Candida albicans ATCC 10231, and two isolates, Saccharomyces cerevisiae and probiotic strain Saccharomyces boulardii.
(§3) The bacterial suspensions were prepared using the direct colony method. The turbidity of the initial suspension was adjusted using a densitometer (DEN-1, BioSan, Latvia). When adjusted to the turbidity of the 0.5 McFarland standard, the bacterial suspension contains approximately 10^8 colony-forming units (CFU)/mL, and the yeast suspension contains approximately 10^6 CFU/mL. For the experiment, the initial suspension was further diluted at a 1:100 ratio in a sterile 0.85% saline solution.
(§4) The antimicrobial activity was assessed by determining the minimum inhibitory concentrations (MICs) and minimum microbicidal concentrations (MMCs) using the microdilution plate method with resazurin (Alfa Aesar GmbH & Co. (KG, Karlsruhe, Germany)). For this, 96-well plates were prepared by adding 100 μL of Mueller Hinton broth (Torlak, Belgrade, Serbia) for bacterial tests and Sabouraud broth (Torlak, Belgrade, Serbia) for yeast into each well. The tested PCH-1 and PCH-2 were dissolved in 10% dimethyl sulfoxide (DMSO) and then diluted into sterile distilled water. A 100 μL sample from the stock solution of the tested compound was then added to the first row of the plate, followed by twofold serial dilutions using a multichannel pipette. This produced a concentration range from 2.69 to 0.0025 µmol/L. The method is described in detail in the reported paper.
(§5) Each test setup included growth control and sterility control. […] Minimum microbicidal concentrations (MMCs) were determined as described in detail in the reported paper.

S. cerevisiae = assay: Microdilution MIC/MMC with resazurin; format: cell-based, Saccharomyces cerevisiae; conditions: for MIC: Saccharomyces cerevisiae
Experimental: as §2, §3, §4, §5

C. albicans ATCC 10231 = assay: Microdilution MIC/MMC with resazurin; format: cell-based, Candida albicans; conditions: for MIC: Candida albicans, ATCC10231
Experimental: as §2, §3, §4, §5

L. plantarum 299V = assay: Microdilution MIC/MMC with resazurin; format: cell-based, Lactobacillus plantarum; conditions: for MIC: Lactiplantibacillus plantarum
Experimental: as §2, §3, §4, §5

K. pneumoniae = assay: Microdilution MIC/MMC with resazurin; format: cell-based, Klebsiella pneumoniae; conditions: for MIC: Klebsiella pneumoniae
Experimental: as §2, §3, §4, §5

P. aeruginosa ATCC 27853 [5] = assay: Microdilution MIC/MMC with resazurin; format: cell-based, Pseudomonas aeruginosa; conditions: for MIC: Pseudomonas aeruginosa, ATCC27853
Experimental: as §2, §3, §4, §5

S. enterica = assay: Microdilution MIC/MMC with resazurin; format: cell-based, Salmonella enterica; conditions: for MMC: S. enterica; for MIC: Salmonella enterica
Experimental: as §2, §3, §4, §5

P. mirabilis ATCC 12453 [6] = assay: Microdilution MIC/MMC with resazurin; format: cell-based, Proteus mirabilis; conditions: for MIC: Proteus mirabilis, ATCC12453
Experimental: as §2, §3, §4, §5

S. aureus (isolate) = assay: Microdilution MIC/MMC with resazurin; format: cell-based, Staphylococcus aureus; conditions: for MIC: Staphylococcus aureus
Experimental: as §2, §3, §4, §5

B. subtilis (isolate) = assay: Microdilution MIC/MMC with resazurin; format: cell-based, Bacillus subtilis; conditions: for MIC: Bacillus subtilis
Experimental: as §2, §3, §4, §5

B. subtilis ATCC 6633 = assay: Microdilution MIC/MMC with resazurin; format: cell-based, Bacillus subtilis; conditions: for MIC: Bacillus subtilis, ATCC6633
Experimental: as §2, §3, §4, §5

E. coli = assay: Microdilution MIC/MMC with resazurin; format: cell-based, Escherichia coli; conditions: for MIC: Escherichia coli
Experimental: as §2, §3, §4, §5

SMILES | BIC90 (P. mirabilis ATCC 12453 [1]) | pIC50 (P. mirabilis ATCC 12453 [1]) | BIC90 (P. aeruginosa ATCC 27853 [2]) | pIC50 (P. aeruginosa ATCC 27853 [2]) | MMC (S. aureus ATCC 25923 [3]) [mM] | MIC (S. aureus ATCC 25923 [3]) [µM] | BIC90 (S. aureus ATCC 25923 [4]) | pIC50 (S. aureus ATCC 25923 [4]) | MMC (S. boulardii) [mM] | MIC (S. boulardii) [µM] | MMC (S. cerevisiae) [mM] | MIC (S. cerevisiae) [µM] | MMC (C. albicans ATCC 10231) [mM] | MIC (C. albicans ATCC 10231) [µM] | MMC (L. plantarum 299V) [mM] | MIC (L. plantarum 299V) [µM] | MMC (K. pneumoniae) [mM] | MIC (K. pneumoniae) [µM] | MMC (P. aeruginosa ATCC 27853 [5]) [mM] | MIC (P. aeruginosa ATCC 27853 [5]) [µM] | also measured
C/C(NNC(=O)c1ccc(O)c(O)c1O)=C1\C(=O)Oc2ccccc2C1=O [PCH-1, (E)-N′-(1-(2,4-dioxochroman-3-ylidene)ethyl)-2,3,4-trihydroxybenzohydrazide] | ˃2.70 mM | < 2.57 | ˃2.70 mM | < 2.57 | 0.17 | 170 (≈ 63 µg/mL) | ˃2.70 mM | < 2.57 | 2.70 | 1350 (≈ 500 µg/mL) | 2.70 | 1350 (≈ 500 µg/mL) | 0.34 | 170 (≈ 63 µg/mL) | 2.70 | 2700 (≈ 1000 µg/mL) | 0.34 | 170 (≈ 63 µg/mL) | 0.34 | 340 (≈ 126 µg/mL) | MMC (S. enterica): 0.17 mM; MIC (S. enterica): 170 µM (≈ 63 µg/mL); MMC (P. mirabilis ATCC 12453 [6]): 0.17 mM; MIC (P. mirabilis ATCC 12453 [6]): 80 µM (≈ 29.6 µg/mL); MMC (S. aureus (isolate)): 2.70 mM; MIC (S. aureus (isolate)): 2700 µM (≈ 1000 µg/mL); MMC (B. subtilis (isolate)): 1.35 mM; MIC (B. subtilis (isolate)): 1350 µM (≈ 500 µg/mL); MMC (B. subtilis ATCC 6633): 2.70 mM; MIC (B. subtilis ATCC 6633): 2700 µM (≈ 1000 µg/mL); MMC (E. coli): 0.34 mM; MIC (E. coli): 340 µM (≈ 126 µg/mL)
C/C(NNC(=O)c1cc(O)c(O)c(O)c1)=C1\C(=O)Oc2ccccc2C1=O [PCH-2, (E)-N′-(1-(2,4-dioxochroman-3-ylidene)ethyl)-3,4,5-trihydroxybenzohydrazide] | ˃2.70 mM | 2.67 | ˃2.70 mM | < 2.57 | 0.34 | 80 (≈ 29.6 µg/mL) | ˃2.70 mM | 2.99 | 2.70 | 2700 (≈ 1000 µg/mL) | 2.70 | 1350 (≈ 500 µg/mL) | 1.35 | 170 (≈ 63 µg/mL) | 0.67 | 670 (≈ 248 µg/mL) | 0.34 | 170 (≈ 63 µg/mL) | 0.67 | 340 (≈ 126 µg/mL) | IC50 (S. aureus ATCC 25923 [4]; ATCC25923, Staphylococcus aureus ATCC 25923, read-out: BIC50): 378 µg/mL; MMC (S. enterica): 0.34 mM; MIC (S. enterica): 80 µM (≈ 29.6 µg/mL); MMC (P. mirabilis ATCC 12453 [6]): 0.17 mM; MIC (P. mirabilis ATCC 12453 [6]): 80 µM (≈ 29.6 µg/mL); MMC (S. aureus (isolate)): 1.35 mM; MIC (S. aureus (isolate)): 1350 µM (≈ 500 µg/mL); MMC (B. subtilis (isolate)): 1.35 mM; MIC (B. subtilis (isolate)): 1350 µM (≈ 500 µg/mL); MMC (B. subtilis ATCC 6633): 0.34 mM; MIC (B. subtilis ATCC 6633): 340 µM (≈ 126 µg/mL); MMC (E. coli): 0.34 mM; MIC (E. coli): 170 µM (≈ 63 µg/mL)
